We go through four compounds from article PMC11538706, “Integrated Electrochemical Aptamer Biosensing and Colorimetric pH Monitoring via Hydrogel Microneedle Assays for Assessing Antibiotic Treatment” (Advanced Science, 2024).

Details of data set [1]: method as in PMID 24972859, PMID 29019915. The following applies: cited from earlier work.
The nature of data set [2]: PK analysis: Cmax and AUC from PK models fitted to serum and ISF concentrations. Particulars: male, Sprague Dawley, rat, iv. In kind it is in vivo, Male Sprague Dawley rats. The protocol:
The estimation of PK parameters, such as the area under the time‐concentration level curve (AUC) and the peak concentrations (Cmax) was performed using two PK models describing the observed patterns of serum and ISF concentrations (Figure S13, Supporting Information) and the Spearman correlation test was used to assess the correlation between PK parameters in serum and ISF.^[ [53] ^] The ISF VAN concentrations used for PK analysis were drawn by interpolating the sensor's response in the VAN calibration curve. The VAN AUC and Cmax from ISF and serum were correlated with correlation values of 0.82 and 0.79, respectively (Figure 5c‐iii).
We also employed the HMN‐Flex assay for detecting GEN in ISF and drawing its PK profile. […] For this purpose, the HMN‐Flex response was monitored every 10 min up to 90 min, followed by two other measurements at 6‐ and 24‐hours (h) postinjection. […] To the best of our knowledge, this is the first time reporting the changes in ISF GEN levels in the rat animal models. […] Importantly, the PK measurements obtained using HMN‐Flex closely matched those derived from conventional blood‐based measurements while the high temporal resolution offered by the HMN‐Flex assay can potentially revolutionize the current TDM.
Two distinct PK models were utilized for this purpose: one for describing antibiotic concentrations in serum, using a 1‐compartment PK model with linear elimination, and another for ISF, consisting of three compartments in series. The model fitting process was carried out using the first‐order conditional estimation method with interaction (FOCEI) routine in Nonmem v7.4, and subsequent PK profiles were simulated from the fitted models using the mrgsolve package in R. AUC and Cmax values were directly derived from the simulated PK profiles, and the correlation between these PK parameters in serum and ISF was assessed using the Spearman correlation test.

The test system of another data set is GEN aptamer. The data set can be described thus: Specificity test of GEN aptamer-modified Flex electrode. In kind it is binding. Particulars: buffer 1X PBS + 2 mM MgCl2; SWV; TOBI 10 µM, DOX 100 ng/mL. The method, then: Additionally, employing the “dual‐frequency” method reduced the batch‐to‐batch variability and improved the sensor response (Figure S6, Supporting Information).
To determine the signal‐on and signal‐off frequencies for each of these aptamers, the aptamer‐modified Flex electrode was first dipped in a blank buffer and scanned (via SWV) at a range of frequencies (Ref). […] The sensor response at each target concentration and for each frequency was calculated via (I – I0) / I0, where “I” is the observed current (SWV peak height) at each condition, and “I0” is the observed current in the blank buffer. As a result, the frequency of 5 and 100 were selected as the signal‐off and signal‐on for the VAN aptamer. […] Afterward (and for the rest of the experiments), the sensor's response is defined as (I – I0) / I0, where the “I” represents the dual‐frequency current (I signal‐on / I signal‐off) at the experimental condition and “I0” represents the dual frequency current (I signal‐on / I signal‐off) of the (0 µM) buffer. To validate the selectivity of HMN‐Flex for VAN/GEN the aptamer‐functionalized Flex electrodes were subjected to non‐specific targets commonly present in ISF and their responses were recorded.

Where two headings read alike, the source gives them in different places.

`CNC(C)C1CCC(N)C(OC2C(N)CC(N)C(OC3OCC(C)(O)C(NC)C3O)C2O)O1` (centres unmarked) [GEN, gentamicin]: the protein binding in data set [1] is given as 30%. Also, the AUC (in general, the area under the concentration-time curve, a measure of exposure) in data set [2] (ISF, 50 mg/kg, GEN, Rat # 4, dose 50 mg/kg i.v., read-out: ISF AUC (converted)) was 1070 µM·h; in data set [2] (ISF, 50 mg/kg, GEN, Rat # 5, dose 50 mg/kg i.v., read-out: ISF AUC (converted)), 1230 µM·h; in data set [2] (ISF, 100 mg/kg, GEN, Rat # 6, dose 100 mg/kg i.v., read-out: ISF AUC (converted)), 3490 µM·h; in data set [2] (interstitial fluid (ISF), 50 mg/kg, GEN, Rat # 2, dose 50 mg/kg i.v., read-out: ISF AUC (converted)) it was 509 µM·h; in data set [2] (interstitial fluid (ISF), 50 mg/kg, GEN, Rat # 3, dose 50 mg/kg i.v., read-out: ISF AUC (converted)), 776 µM·h; in data set [2] (interstitial fluid (ISF), 100 mg/kg, GEN, Rat # 1, dose 100 mg/kg i.v., read-out: ISF AUC (converted)), 848 µM·h. Besides, the AUC in data set [2] (interstitial fluid (ISF), 100 mg/kg, GEN, Rat # 2, dose 100 mg/kg i.v., read-out: ISF AUC (converted)) was 827 µM·h; in data set [2] (serum, 50 mg/kg, GEN, Rat # 2, dose 50 mg/kg i.v., read-out: Serum AUC (converted)), 467 µM·h; in data set [2] (serum, 50 mg/kg, GEN, Rat # 3, dose 50 mg/kg i.v., read-out: Serum AUC (converted)), 321 µM·h; in data set [2] (serum, 50 mg/kg, GEN, Rat # 4, dose 50 mg/kg i.v., read-out: Serum AUC (converted)) it was 108 µM·h; in data set [2] (serum, 50 mg/kg, GEN, Rat # 5, dose 50 mg/kg i.v., read-out: Serum AUC (converted)), 2380 µM·h; in data set [2] (serum, 100 mg/kg, GEN, Rat # 1, dose 100 mg/kg i.v., read-out: Serum AUC (converted)), 2410 µM·h. The AUC is 1120 µM·h in data set [2] (serum, 100 mg/kg, GEN, Rat # 2, dose 100 mg/kg i.v., read-out: Serum AUC (converted)) and 3380 µM·h in data set [2] (serum, 100 mg/kg, GEN, Rat # 6, dose 100 mg/kg i.v., read-out: Serum AUC (converted)). Also, the highest concentration (Cmax) (as a rule, the maximum level reached in the sampled fluid or tissue) in data set [2] (ISF, 50 mg/kg, GEN, Rat # 4, dose 50 mg/kg i.v., read-out: ISF Cmax) came out at 221 µM; in data set [2] (ISF, 50 mg/kg, GEN, Rat # 5, dose 50 mg/kg i.v., read-out: ISF Cmax), 387 µM; in data set [2] (ISF, 100 mg/kg, GEN, Rat # 6, dose 100 mg/kg i.v., read-out: ISF Cmax), 886 µM; in data set [2] (interstitial fluid (ISF), 50 mg/kg, GEN, Rat # 2, dose 50 mg/kg i.v., read-out: ISF Cmax), 148 µM; in data set [2] (interstitial fluid (ISF), 50 mg/kg, GEN, Rat # 3, dose 50 mg/kg i.v., read-out: ISF Cmax), 253 µM; in data set [2] (interstitial fluid (ISF), 100 mg/kg, GEN, Rat # 1, dose 100 mg/kg i.v., read-out: ISF Cmax), 279 µM. In addition, the Cmax in data set [2] (interstitial fluid (ISF), 100 mg/kg, GEN, Rat # 2, dose 100 mg/kg i.v., read-out: ISF Cmax) is 324 µM; in data set [2] (serum, 50 mg/kg, GEN, Rat # 2, dose 50 mg/kg i.v., read-out: Serum Cmax), 680 µM; in data set [2] (serum, 50 mg/kg, GEN, Rat # 3, dose 50 mg/kg i.v., read-out: Serum Cmax) it was 807 µM; in data set [2] (serum, 50 mg/kg, GEN, Rat # 4, dose 50 mg/kg i.v., read-out: Serum Cmax), 268 µM; in data set [2] (serum, 50 mg/kg, GEN, Rat # 5, dose 50 mg/kg i.v., read-out: Serum Cmax) it was 4100 µM; in data set [2] (serum, 100 mg/kg, GEN, Rat # 1, dose 100 mg/kg i.v., read-out: Serum Cmax), 1870 µM. The maximum concentration (Cmax) in data set [2] (serum, 100 mg/kg, GEN, Rat # 2, dose 100 mg/kg i.v., read-out: Serum Cmax) was 1320 µM; in data set [2] (serum, 100 mg/kg, GEN, Rat # 6, dose 100 mg/kg i.v., read-out: Serum Cmax), 4280 µM.

For `NC[C@H]1O[C@H](O[C@H]2[C@H](O)[C@@H](O[C@H]3O[C@H](CO)[C@@H](O)[C@H](N)[C@H]3O)[C@H](N)C[C@@H]2N)[C@H](N)C[C@@H]1O` [TOBI, Tobramycin], the “GEN sensor response to non-specific targets” value in the data set with GEN aptamer was “increase in current”.

In the case of `COc1cccc2c1C(=O)c1c(O)c3c(c(O)c1C2=O)C[C@@](O)(C(=O)CO)C[C@@H]3O[C@H]1C[C@H](N)[C@H](O)[C@H](C)O1` [DOX, Doxorubicin], the “GEN sensor response to non-specific targets” value in the data set with GEN aptamer is reported as “did not produce a response”.

With `CN[C@H](CC(C)C)C(=O)N[C@H]1C(=O)N[C@@H](CC(N)=O)C(=O)N[C@H]2C(=O)N[C@H]3C(=O)N[C@H](C(=O)N[C@H](C(=O)O)c4cc(O)cc(O)c4-c4cc3ccc4O)[C@H](O)c3ccc(c(Cl)c3)Oc3cc2cc(c3O[C@@H]2O[C@H](CO)[C@@H](O)[C@H](O)[C@H]2O[C@H]2C[C@](C)(N)[C@H](O)[C@H](C)O2)Oc2ccc(cc2Cl)[C@H]1O` [VAN, vancomycin], the exposure (AUC) in data set [2] (in vivo, 15 mg/kg, VAN, Rat # 1, dose 15 mg/kg i.v., read-out: ISF AUC (converted)) is 37 µM·h; in data set [2] (in vivo, 15 mg/kg, VAN, Rat # 1, dose 15 mg/kg i.v., read-out: Serum AUC (converted)) it was 59.1 µM·h; in data set [2] (in vivo, 15 mg/kg, VAN, Rat # 2, dose 15 mg/kg i.v., read-out: ISF AUC (converted)) it was 8.72 µM·h; in data set [2] (in vivo, 15 mg/kg, VAN, Rat # 2, dose 15 mg/kg i.v., read-out: Serum AUC (converted)) it was 50.8 µM·h; in data set [2] (in vivo, 45 mg/kg, VAN, Rat # 1, dose 45 mg/kg i.v., read-out: ISF AUC (converted)), 139 µM·h; in data set [2] (in vivo, 45 mg/kg, VAN, Rat # 1, dose 45 mg/kg i.v., read-out: Serum AUC (converted)) it was 216 µM·h. The AUC in data set [2] (in vivo, 45 mg/kg, VAN, Rat # 2, dose 45 mg/kg i.v., read-out: ISF AUC (converted)) was 51.3 µM·h; in data set [2] (in vivo, 45 mg/kg, VAN, Rat # 2, dose 45 mg/kg i.v., read-out: Serum AUC (converted)) it was 184 µM·h. Further, the Cmax in data set [2] (in vivo, 15 mg/kg, VAN, Rat # 1, dose 15 mg/kg i.v., read-out: ISF Cmax) was found to be 28.3 µM; in data set [2] (in vivo, 15 mg/kg, VAN, Rat # 1, dose 15 mg/kg i.v., read-out: Serum Cmax), 117 µM; in data set [2] (in vivo, 15 mg/kg, VAN, Rat # 2, dose 15 mg/kg i.v., read-out: ISF Cmax) it was 8.4 µM; in data set [2] (in vivo, 15 mg/kg, VAN, Rat # 2, dose 15 mg/kg i.v., read-out: Serum Cmax), 99.9 µM; in data set [2] (in vivo, 45 mg/kg, VAN, Rat # 1, dose 45 mg/kg i.v., read-out: ISF Cmax), 94.5 µM; in data set [2] (in vivo, 45 mg/kg, VAN, Rat # 1, dose 45 mg/kg i.v., read-out: Serum Cmax) it was 254 µM. Moreover, the Cmax in data set [2] (in vivo, 45 mg/kg, VAN, Rat # 2, dose 45 mg/kg i.v., read-out: ISF Cmax) amounted to 36.5 µM; in data set [2] (in vivo, 45 mg/kg, VAN, Rat # 2, dose 45 mg/kg i.v., read-out: Serum Cmax) it was 239 µM.
